Columns and labels:
Test in all cases: combination Emax (second highest fraction inhibited in the dose matrix, 72 h); higher = more inhibition; extreme values may be limits of the assay
[1] = test system: SAT (Head and Neck Carcinoma)
Procedure, shortened: (§1)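 After 24 hours at 37°C and 5% CO2 in 1536-well plates, cells in DMEM/F12 or RPMI plus 10% FBS received two-drug dose matrices for 72 hours. Viability came from CellTiter-Glo 2.0 luminescence and was scaled as inhibition, anchored at 0 by vehicle wells and at 1 by blank wells. Combination Emax is taken as the second-highest inhibition in the matrix, and Bliss excess as the observed combination effect less EA + EB − EA·EB, with EA and EB the single-agent effects.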

AM-38 (Glioblastoma) = test system: AM-38 (Glioblastoma)
Procedure, shortened: as §1

ES6 (Ewing's Sarcoma) = test system: ES6 (Ewing's Sarcoma)
Procedure, shortened: as §1

[2] = test system: RCC-JW (Kidney Carcinoma)
Procedure, shortened: as §1

[3] = test system: SKG-IIIa (Cervical Carcinoma)
Procedure, shortened: as §1

[4] = test system: NCI-H1341 (Small Cell Lung Carcinoma)
Procedure, shortened: as §1

[5] = test system: SUP-M2 (T-Cell Non-Hodgkin's Lymphoma)
Procedure, shortened: as §1

[6] = test system: C-33-A (Cervical Carcinoma)
Procedure, shortened: as §1

[7] = test system: IA-LM (Non-Small Cell Lung Carcinoma)
Procedure, shortened: as §1

[8] = test system: P30-OHK (B-Lymphoblastic Leukemia)
Procedure, shortened: as §1

[9] = test system: LCLC-103H (Non-Small Cell Lung Carcinoma)
Procedure, shortened: as §1

[10] = test system: SiHa (Cervical Carcinoma)
Procedure, shortened: as §1

GAK (Melanoma) = test system: GAK (Melanoma)
Procedure, shortened: as §1

[11] = test system: CL-11 (Colorectal Carcinoma)
Procedure, shortened: as §1

[12] = test system: COR-L88 (Small Cell Lung Carcinoma)
Procedure, shortened: as §1

[13] = test system: NCI-H596 (Other Solid Carcinomas)
Procedure, shortened: as §1

[14] = test system: NCI-H1876 (Small Cell Lung Carcinoma)
Procedure, shortened: as §1

NCI-H2373 (Mesothelioma) = test system: NCI-H2373 (Mesothelioma)
Procedure, shortened: as §1

IST-MEL1 (Melanoma) = test system: IST-MEL1 (Melanoma)
Procedure, shortened: as §1

[15] = test system: LS-1034 (Colorectal Carcinoma)
Procedure, shortened: as §1

In the case of `Cc1c2c(nn1C)CSCc1cc(n(C)n1)CSc1cc(c3ccccc3c1)OCCCc1c(C(=O)O)n(C)c3c-2c(Cl)ccc13` [AZD5991] + Cn1cnc2c(F)c(Nc3ccc(Br)cc3Cl)c(C(=O)NOCCO)cc21 [Selumetinib] (first compound max 1 µM, 7x7, partner max 3 µM), the “combination Emax” value [1] is reported as 0.803, the “combination Emax” value (AM-38 (Glioblastoma)) is reported as 0.709 and the “combination Emax” value (ES6 (Ewing's Sarcoma)) is reported as 0.209. For the same molecule, the “combination Emax” value [2] was 0.228, the “combination Emax” value [3] was 0.24 and the “combination Emax” value [4] was 0.496. For the same molecule, the “combination Emax” value [5] was 1, the “combination Emax” value [6] was 0.365 and the “combination Emax” value [7] was 0.24. The “combination Emax” value [8] was 0.744, the “combination Emax” value [9] was 0.176 and the “combination Emax” value [10] was 0.305. For the same molecule, the “combination Emax” value (GAK (Melanoma)) was 0.776, the “combination Emax” value [11] was 0.525 and the “combination Emax” value [12] was 0.17. The “combination Emax” value [13] was 0.241, the “combination Emax” value [14] was 0.748 and the “combination Emax” value (NCI-H2373 (Mesothelioma)) was 0.318. For the same molecule, the “combination Emax” value (IST-MEL1 (Melanoma)) was 0.395 and the “combination Emax” value [15] was 0.587.
For `Cc1cc2ncnn2cc1Nc1ncc2c(n1)n(C1CCOCC1)c(=O)n2C` [AZD7648] + C=CCn1c(=O)c2cnc(Nc3ccc(N4CCN(C)CC4)cc3)nc2n1-c1cccc(C(C)(C)O)n1 [AZD1775] (first compound max 10 µM, partner max 1 µM), the “combination Emax” value [1] was 0.623, the “combination Emax” value (AM-38 (Glioblastoma)) was 0.343 and the “combination Emax” value (ES6 (Ewing's Sarcoma)) was 0.505. For the same molecule, the “combination Emax” value [2] was 0.413, the “combination Emax” value [3] was 0.43 and the “combination Emax” value [4] was 0.69. For the same molecule, the “combination Emax” value [5] was 0.991, the “combination Emax” value [6] was 0.93 and the “combination Emax” value [7] was 0.42. The “combination Emax” value [8] was 0.754, the “combination Emax” value [9] was 0.552 and the “combination Emax” value [10] was 0.308. The “combination Emax” value (GAK (Melanoma)) was 0.713, the “combination Emax” value [11] was 0.638 and the “combination Emax” value [12] was 0.545. For the same molecule, the “combination Emax” value [13] was 0.357, the “combination Emax” value [14] was 0.976 and the “combination Emax” value (NCI-H2373 (Mesothelioma)) was 0.484. For the same molecule, the “combination Emax” value (IST-MEL1 (Melanoma)) was 0.577 and the “combination Emax” value [15] was 0.379.
For `Cc1cc2ncnn2cc1Nc1ncc2c(n1)n(C1CCOCC1)c(=O)n2C` [AZD7648] + CCN(CCO)CCCOc1ccc2c(Nc3cc(CC(=O)Nc4cccc(F)c4)[nH]n3)ncnc2c1 [AZD2811] (first compound max 10 µM, 7x7, partner max 1 µM), the “combination Emax” value [1] was 0.376, the “combination Emax” value (AM-38 (Glioblastoma)) was 0.405 and the “combination Emax” value (ES6 (Ewing's Sarcoma)) was 0.407. For the same molecule, the “combination Emax” value [2] was 0.447, the “combination Emax” value [3] was 0.297 and the “combination Emax” value [4] was 0.371. The “combination Emax” value [5] was 0.932, the “combination Emax” value [6] was 0.368 and the “combination Emax” value [7] was 0.268. The “combination Emax” value [8] was 0.85, the “combination Emax” value [9] was 0.377 and the “combination Emax” value [10] was 0.335. For the same molecule, the “combination Emax” value (GAK (Melanoma)) was 0.237, the “combination Emax” value [11] was 0.276 and the “combination Emax” value [12] was 0.244. For the same molecule, the “combination Emax” value [13] was 0.243, the “combination Emax” value [14] was 0.794 and the “combination Emax” value (NCI-H2373 (Mesothelioma)) was 0.534. The “combination Emax” value (IST-MEL1 (Melanoma)) was 0.457 and the “combination Emax” value [15] was 0.264.
In the case of `Cc1cc2ncnn2cc1Nc1ncc2c(n1)n(C1CCOCC1)c(=O)n2C` [AZD7648] + CN(C)CCCOc1ccc(-c2ccc3ncc4c(c3c2)n(C2CCOCC2)c(=O)n4C)cn1 [AZD0156] (first compound max 10 µM, 7x7, partner max 1 µM), the “combination Emax” value [1] is reported as 0.378, the “combination Emax” value (AM-38 (Glioblastoma)) is reported as 0.417 and the “combination Emax” value (ES6 (Ewing's Sarcoma)) is reported as 0.37. The “combination Emax” value [2] was 0.339, the “combination Emax” value [3] was 0.241 and the “combination Emax” value [4] was 0.34. For the same molecule, the “combination Emax” value [5] was 0.183, the “combination Emax” value [6] was 0.372 and the “combination Emax” value [7] was 0.35. For the same molecule, the “combination Emax” value [8] was 0.376, the “combination Emax” value [9] was 0.338 and the “combination Emax” value [10] was 0.305. The “combination Emax” value (GAK (Melanoma)) was 0.303, the “combination Emax” value [11] was 0.255 and the “combination Emax” value [12] was 0.237. The “combination Emax” value [13] was 0.243, the “combination Emax” value [14] was 0.317 and the “combination Emax” value (NCI-H2373 (Mesothelioma)) was 0.566. For the same molecule, the “combination Emax” value (IST-MEL1 (Melanoma)) was 0.275 and the “combination Emax” value [15] was 0.239.
For `Cc1cc2ncnn2cc1Nc1ncc2c(n1)n(C1CCOCC1)c(=O)n2C` [AZD7648] + C[C@@H]1COCCN1C2=NC(=NC(=C2)C3(CC3)[S@](=N)(=O)C)C4=C5C=CNC5=NC=C4 [AZD6738] (first compound max 10 µM, 7x7, partner max 10 µM), the “combination Emax” value [1] was 0.494, the “combination Emax” value (AM-38 (Glioblastoma)) was 0.758 and the “combination Emax” value (ES6 (Ewing's Sarcoma)) was 0.601. The “combination Emax” value [2] was 0.568, the “combination Emax” value [3] was 0.318 and the “combination Emax” value [4] was 0.801. The “combination Emax” value [5] was 0.992, the “combination Emax” value [6] was 0.913 and the “combination Emax” value [7] was 0.402. For the same molecule, the “combination Emax” value [8] was 0.811, the “combination Emax” value [9] was 0.58 and the “combination Emax” value [10] was 0.32. For the same molecule, the “combination Emax” value (GAK (Melanoma)) was 0.578, the “combination Emax” value [11] was 0.767 and the “combination Emax” value [12] was 0.713. For the same molecule, the “combination Emax” value [13] was 0.365, the “combination Emax” value [14] was 0.809 and the “combination Emax” value (NCI-H2373 (Mesothelioma)) was 0.674. The “combination Emax” value (IST-MEL1 (Melanoma)) was 0.777 and the “combination Emax” value [15] was 0.696.
With `Cc1cc2ncnn2cc1Nc1ncc2c(n1)n(C1CCOCC1)c(=O)n2C` [AZD7648] + O=C(c1cc(Cc2n[nH]c(=O)c3ccccc23)ccc1F)N1CCN(C(=O)C2CC2)CC1 [Olaparib] (first compound max 10 µM, 7x7, partner max 10 µM) the “combination Emax” value [1] was 0.164, the “combination Emax” value (AM-38 (Glioblastoma)) was 0.616 and the “combination Emax” value (ES6 (Ewing's Sarcoma)) was 0.222. The “combination Emax” value [2] was 0.198, the “combination Emax” value [3] was 0.0374 and the “combination Emax” value [4] was 0.433. The “combination Emax” value [5] was 0.831, the “combination Emax” value [6] was 0.305 and the “combination Emax” value [7] was 0.158. For the same molecule, the “combination Emax” value [8] was 0.364, the “combination Emax” value [9] was 0.299 and the “combination Emax” value [10] was 0.143. For the same molecule, the “combination Emax” value (GAK (Melanoma)) was 0.0973, the “combination Emax” value [11] was 0.144 and the “combination Emax” value [12] was 0.231. For the same molecule, the “combination Emax” value [13] was 0.361, the “combination Emax” value [14] was 0.723 and the “combination Emax” value (NCI-H2373 (Mesothelioma)) was 0.572. The “combination Emax” value (IST-MEL1 (Melanoma)) was 0.24 and the “combination Emax” value [15] was 0.0469.

Reference: the supplement of paper PMC11061612
